The values that follow come from patent US20210154190A1, “SHP2 INHIBITOR COMPOSITIONS AND METHODS FOR TREATING CANCER” (Revolution Medicines, Inc., priority 2018, published 2021).

One test concerns the target T1, SHP2 S502P (Homo sapiens, UniProt Q06124, S502P).
T1 construct: expressed in transfected cells; host or cells: Flp-In T-REx-293 (T-REx-293-SHP2)
Put plainly: EGF-induced pERK AlphaLISA in T-REx-293-SHP2 cells, S502P. The class given is cell-based. Conditions: Variant S502P. The protocol: (§1) An experimental system was creating to test the activity of SHP2 mutants on an isogenic background (FIG. 6). The Flp-In T-REx-293 cell line was obtained from Gibco® and cultivated in high glucose DMEM™ containing 2 mM L-glutamine (Hyclone®), supplemented with 10% FBS (Hyclone®), 1% penicillin/streptomycin (Gibco®), 100 μg/mL Zeocin™ (Gibco®), and 15 μg/mL blasticidin (Gibco®) in a humidified cell culture incubator at 37° C., 5% CO2.
(§2) Wild type or mutant SHP2 variants were synthesized and subcloned into the pcDNA5/FRT/TO vector (ThermoFisher). Plasmids were co-transfected with the pOG44 Flp recombinase expression plasmid (ThermoFisher®) into Flp-In T-REx-293 cells using X-tremegene 9 DNA transfection reagent (Sigma®), according to the manufacturer's instructions. […]
(§3) For the final 5 minutes of drug treatment, cells were stimulated with 50 ng/mL Epidermal Growth Factor (Sigma®). […] Samples were read using an EnVision Multilabel Plate Reader (Perkin Elmer®) using standard AlphaLISA settings. Assay data was plotted and EC50 values were determined using four-parameter concentration-response model in GraphPad Prism 7. […]
(In general: In Alpha technology, singlet oxygen from a donor bead excites a nearby acceptor bead.)

The target of a further test is T2, SHP2 L262R (Homo sapiens, UniProt Q06124, L262R).
T2 construct: expressed in transfected cells; host or cells: Flp-In T-REx-293 (T-REx-293-SHP2)
As to the kind of experiment: EGF-induced pERK AlphaLISA in T-REx-293-SHP2 cells, L262R. The class given is cell-based. Particulars: Variant L262R. Here is the method: as §1, §2, §3

The target in another test is T3, SHP2 Q506P (Homo sapiens, UniProt Q06124, Q506P).
T3 construct: expressed in transfected cells; host or cells: Flp-In T-REx-293 (T-REx-293-SHP2)
Put plainly: EGF-induced pERK AlphaLISA in T-REx-293-SHP2 cells, Q506P. The class given is cell-based. Particulars: Variant Q506P. The protocol:
as §1, §2, §3

The target of test [1] is T4, SHP2 T253M/Q257L (Homo sapiens, UniProt Q06124, Q257L/T253M).
T4 sequence (Q06124 1-593 T253M/Q257L): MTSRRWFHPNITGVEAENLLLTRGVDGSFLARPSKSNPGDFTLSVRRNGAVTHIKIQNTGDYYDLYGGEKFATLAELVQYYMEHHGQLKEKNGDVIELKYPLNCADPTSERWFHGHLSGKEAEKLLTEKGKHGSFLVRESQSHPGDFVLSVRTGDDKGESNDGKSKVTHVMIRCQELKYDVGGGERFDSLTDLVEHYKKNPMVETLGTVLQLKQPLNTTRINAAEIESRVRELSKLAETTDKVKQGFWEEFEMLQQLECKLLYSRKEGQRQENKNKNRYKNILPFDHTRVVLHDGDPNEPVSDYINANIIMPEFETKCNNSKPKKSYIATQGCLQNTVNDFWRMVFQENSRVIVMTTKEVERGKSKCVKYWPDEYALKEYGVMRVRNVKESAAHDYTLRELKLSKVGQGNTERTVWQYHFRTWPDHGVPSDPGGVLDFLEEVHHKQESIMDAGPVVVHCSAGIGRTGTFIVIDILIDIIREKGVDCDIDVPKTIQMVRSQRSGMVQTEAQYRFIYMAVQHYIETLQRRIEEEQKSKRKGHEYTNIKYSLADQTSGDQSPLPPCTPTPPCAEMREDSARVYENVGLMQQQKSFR
As to the kind of experiment: EGF-induced pERK AlphaLISA in T-REx-293-SHP2 cells, T253M/Q257L. The class given is cell-based. Further details: expressed in transfected cells; host or cells: Flp-In T-REx-293 (T-REx-293-SHP2). The protocol: as §1, §2, §3

A further test concerns the target T5, SHP2 G503V (Homo sapiens, UniProt Q06124, G503V).
T5 construct: expressed in transfected cells; host or cells: Flp-In T-REx-293 (T-REx-293-SHP2)
As to the kind of experiment: EGF-induced pERK AlphaLISA in T-REx-293-SHP2 cells, G503V. Conditions: Variant G503V. The class given is cell-based. Here is the method:
as §1, §2, §3

The next test addresses T6, SHP2 T73I (Homo sapiens, UniProt Q06124, T73I).
T6 construct: expressed in transfected cells; host or cells: Flp-In T-REx-293 (T-REx-293-SHP2)
Put plainly: EGF-induced pERK AlphaLISA in T-REx-293-SHP2 cells, T73I. The class given is cell-based. Conditions: Variant T73I. Here is the method:
as §1, §2, §3

Test [2] concerns the target T4, SHP2 T253M/Q257L. Put plainly: SHP2 allosteric inhibition assay (DiFMUP), T253M/Q257L. Further details: expressed in transfected cells. Particulars: Variant T253M/Q257L. The class given is biochemical.
The next test has as its target T7, SHP2 D61G (Homo sapiens, UniProt Q06124, D61G).
T7 construct: expressed in transfected cells; host or cells: Flp-In T-REx-293 (T-REx-293-SHP2)
Put plainly: EGF-induced pERK AlphaLISA in T-REx-293-SHP2 cells, D61G. The class given is cell-based. Conditions: Variant D61G. The protocol:
as §1, §2, §3

In a further test the target is T8, SHP2 S189A (Homo sapiens, UniProt Q06124, S189A).
T8 construct: expressed in transfected cells; host or cells: Flp-In T-REx-293 (T-REx-293-SHP2)
As to the kind of experiment: EGF-induced pERK AlphaLISA in T-REx-293-SHP2 cells, S189A. The class given is cell-based. Conditions: Variant S189A. The protocol:
as §1, §2, §3

A further test addresses T9, SHP2 E76K (Homo sapiens, UniProt Q06124, E76K).
T9 construct: expressed in transfected cells; host or cells: Flp-In T-REx-293 (T-REx-293-SHP2)
As to the kind of experiment: EGF-induced pERK AlphaLISA in T-REx-293-SHP2 cells, E76K. Conditions: Variant E76K. The class given is cell-based. Here is the method:
as §1, §2, §3

In a further test the target is T10, SHP2 G60V (Homo sapiens, UniProt Q06124, G60V).
T10 construct: expressed in transfected cells; host or cells: Flp-In T-REx-293 (T-REx-293-SHP2)
Put plainly: EGF-induced pERK AlphaLISA in T-REx-293-SHP2 cells, G60V. The class given is cell-based. Conditions: Variant G60V. Here is the method: as §1, §2, §3

A further test concerns the target T11, SHP2 P491S (Homo sapiens, UniProt Q06124, P491S).
T11 construct: expressed in transfected cells; host or cells: Flp-In T-REx-293 (T-REx-293-SHP2)
Put plainly: EGF-induced pERK AlphaLISA in T-REx-293-SHP2 cells, P491S. The class given is cell-based. Particulars: Variant P491S. The protocol: as §1, §2, §3

The target of the next test is T12, SHP2 WT (Homo sapiens, UniProt Q06124).
T12 construct: expressed in transfected cells; host or cells: Flp-In T-REx-293 (T-REx-293-SHP2)
As to the kind of experiment: EGF-induced pERK AlphaLISA in T-REx-293-SHP2 cells, WT. The class given is cell-based. Particulars: Variant WT. Here is the method:
as §1, §2, §3

The target in another test is T13, SHP2 F285S (Homo sapiens, UniProt Q06124, F285S).
T13 construct: expressed in transfected cells; host or cells: Flp-In T-REx-293 (T-REx-293-SHP2)
Put plainly: EGF-induced pERK AlphaLISA in T-REx-293-SHP2 cells, F285S. The class given is cell-based. Conditions: Variant F285S. Here is the method: as §1, §2, §3

For `Cc1nc(N2CCC3(CC2)CO[C@@H](C)[C@H]3N)c(CO)nc1-c1cccc(Cl)c1Cl` [Compound B], the Cellular sensitivity entry at SHP2 S502P is “yes (Sensitive if IC50 < 2000 nM)”; on SHP2 L262R, “yes (Sensitive if IC50 < 2000 nM)”; on SHP2 Q506P, “yes (Sensitive if IC50 < 2000 nM)”; at SHP2 T253M/Q257L [1] (Variant T253M/Q257L) it was “no (Sensitive if IC50 < 2000 nM)”; on SHP2 G503V, “no (Sensitive if IC50 < 2000 nM)”; on SHP2 T73I, “yes (Sensitive if IC50 < 2000 nM)”. Moreover, the Cellular sensitivity entry was “yes (Sensitive if IC50 < 2000 nM)” on SHP2 D61G; “yes (Sensitive if IC50 < 2000 nM)” on SHP2 S189A; “no (Sensitive if IC50 < 2000 nM)” at SHP2 E76K; “no (Sensitive if IC50 < 2000 nM)” at SHP2 G60V; “no (Sensitive if IC50 < 2000 nM)” at SHP2 P491S; “yes (Sensitive if IC50 < 2000 nM)” on SHP2 WT. Also, the Cellular sensitivity result on SHP2 F285S was “yes (Sensitive if IC50 < 2000 nM)”. In addition, at SHP2 T253M/Q257L [1] (T253M/Q257L, cellular pERK), the “inhibition of engineered double mutant in the Compound B binding site” value is recorded as “insensitive to inhibition”. The Biochemical sensitivity result at SHP2 T253M/Q257L [2] was “no (Sensitive if IC50 < 2000 nM)”.
